Values joined by “and” are separate entries in the source; they are usually repeats but may differ in a detail not shown here. Equal entries are not always repeated. Where two headings read alike, the source gives them in different places.
Columns and labels:
[1] = test system: ISG expression in MCF10A Cas9 cells expressing BRCC45 R137A; experiment: MCF10A BRCC45 R137A ISG expression (RT–qPCR); assay type: cell-based, human; set-up: scale not given here; settings: BRCC45 KO+ BRCC45 R137A; replicate values
Description: Supplementary Protocols 1. Experimental procedures for cell biology experiments. […]
Media supplements including human insulin solution (Santa Cruz Biotechnology, #sc-360248), cholera toxin from vibrio (Sigma Aldrich, #C8052-2MG), recombinant human EGF (PeproTech, #AF-100-15-100µg), hydrocortisone (Sigma-Aldrich, #H-0888) were used to grow MCF10A cells. The 4–12% Bis-Tris SDS-PAGE gels, cell culture media, horse serum and other materials for tissue culture were purchased from Invitrogen. LipoD293 (SigmaGen, #SL100668) was used for all the transfections to generate knock out cell lines.
Immortalised breast epithelial cell line MCF10A were cultured in 10 cm plates with Dulbecco’s Modified Eagle Medium (DMEM) + F-12 (1:1) supplemented with 5% horse serum, 100 ng/mL cholera toxin, 10 […]
Real-time quantitative PCR
1x10^5 MCF10A cells were cultured as described above and seeded into 6 well plates. Cells were left to reach ultra-confluence. Once confluent, cells were washed with PBS and starved for 30 minutes in 2 mL DMEM + F-12 (1:1) supplemented with 1% horse serum. After 30 minutes cells were pre-treated with either DMSO (0.1%) (Control and IFN only) or BRISC inhibitor (2.5 µM) for 15 minutes. After 15 minutes, hIFN2α (75 ng/mL) was added to the media and mixed. Cells were treated for 4 hours. Cells were washed with ice cold PBS and scraped with cell scrapers into 350 µL RNAlater buffer and RNA […]
#79254). Isolated RNA was quantified using a Nanodrop spectrophotometer. RNA was converted into cDNA and the complementary DNA was used for real-time quantitative PCR analysis of expression of interferon stimulated genes (ISG15, IFIT1, IFIT2, IFITM1, CXCL10 and RNA18S) using an Applied Biosystems Quantstudio 6 RT-PCR system. All experiments were carried out in triplicate.

BRISC = biological target: T1, BRISC (Homo sapiens, UniProt P46736+Q15018+Q9NXR7); experiment: BRISC DUB activity assay (IQF K63-linked diubiquitin); assay type: biochemical
T1 construct: made in house; host or cells: Spodoptera frugiperda (Sf9) insect cells, MultiBac
Procedure, shortened: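 50 mM HEPES pH 7.0, 100 mM NaCl, 0.1 mg/ml BSA, 1 mM DTT, 0.03% Brij-35; BRISC WT/mutants 1 nM final; IQF K63 diUb 50 nM. Fluorescence read ex 544/em 575 nm each min, 30 min, 30 °C. V0 = progress-curve slope; IC50 by variable-slope dose–response.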

## O=C(NC1C2CNCC21)c1nn(C(=O)c2c(Cl)cccc2Cl)cc1NC(=O)c1c(Cl)cccc1Cl (stereo not shown) [FX-171-C]
[1]
  ISG expression (Fig. 5b): 1.886 and 0.9791 and 0.9889 and 0.9654 and 2.3346
  ISG expression (Fig. 5c): 1.805 and 0.9044 and 1.045 and 1.083 and 2.1
  ISG expression (Fig. 5e): 1.992 and 0.8788 and 0.9319 and 1.019 and 2.187
  ISG expression (Fig. 5f): 1.937 and 0.8462 and 0.8933 and 0.87 and 0.6063
  ISG expression (Fig. 5d): 2.039 and 1.092 and 1.112 and 1.2514 and 2.244
BRISC; 32-point dose-response, biphasic fit, read-out: IC50(1), biphasic curve
  IC50: 7200 nM
BRISC; 32-point dose-response, biphasic fit, read-out: IC50(2), biphasic curve
  IC50: 149 nM
BRISC; BRISC WT, FX-171-C 0.35 μM, read-out: Normalised V0
  remaining activity at 0.35 µM: 54.2%
BRISC; BRISC WT, FX-171-C 6.25 μM, read-out: Normalised V0
  remaining activity at 6.25 µM: 13%
BRISC; FX-171-C IC50, BRISC WT, mutant panel (Extended Data Fig. 7c)
  IC50: 600 nM
BRISC; Fig. 1g, BRISC, FX-171-C 0.0599997 μM
  Normalised V0: 1.019
BRISC; Fig. 1g, BRISC, FX-171-C 0.0799994 μM
  Normalised V0: 0.9329 and 1.215 and 0.984
BRISC; Fig. 1g, BRISC, FX-171-C 0.119998 μM
  Normalised V0: 0.8991 and 1.297 and 1.1131
BRISC; Fig. 1g, BRISC, FX-171-C 0.199996 μM
  Normalised V0: 0.9109 and 1.1 and 0.9714
BRISC; Fig. 1g, BRISC, FX-171-C 0.499975 μM
  Normalised V0: 0.8337 and 0.8541 and 0.839
BRISC; Fig. 1g, BRISC, FX-171-C 0.799936 μM
  Normalised V0: 0.8201 and 0.7671 and 0.7222
BRISC; Fig. 1g, BRISC, FX-171-C 1.25984 μM
  Normalised V0: 0.7744 and 0.5965 and 0.5179
BRISC; Fig. 1g, BRISC, FX-171-C 1.9996 μM
  Normalised V0: 0.7381 and 0.4197 and 0.4126
BRISC; Fig. 1g, BRISC, FX-171-C 3.159 μM
  Normalised V0: 0.4028 and 0.2971 and 0.3289
BRISC; Fig. 1g, BRISC, FX-171-C 5.19739 μM
  Normalised V0: 0.6152 and 0.3188 and 0.3118
BRISC; HsBRISC, FX-171-C 0.0599997 μM, read-out: Normalised V0
  remaining activity at 0.0599997 µM: 102%
BRISC; HsBRISC, FX-171-C 0.199996 μM, read-out: Normalised V0
  remaining activity at 0.199996 µM: 91.1%
BRISC; HsBRISC, FX-171-C 0.499975 μM, read-out: Normalised V0
  remaining activity at 0.499975 µM: 83.4%
BRISC; HsBRISC, FX-171-C 0.799937 μM, read-out: Normalised V0
  remaining activity at 0.799937 µM: 82%
BRISC; HsBRISC, FX-171-C 3.159 μM, read-out: Normalised V0
  remaining activity at 3.159 µM: 40.3%
BRISC; HsBRISC, FX-171-C 19.96 μM, read-out: Normalised V0
  remaining activity at 19.96 µM: 18.8%
BRISC; HsBRISC, FX-171-C 31.4999 μM, read-out: Normalised V0
  remaining activity at 31.4999 µM: 18.9%
BRISC; HsBRISC, FX-171-C 79.7601 μM, read-out: Normalised V0
  remaining activity at 79.7601 µM: 22.3%
BRISC; HsBRISC, FX-171-C 125.99 μM, read-out: Normalised V0
  remaining activity at 125.99 µM: 16.2%
BRISC; IQF K63-linked diubiquitin substrate, read-out: IC50, inhibition of BRISC DUB activity
  IC50: 1400 nM
BRISC; [Inhibitor] 0.013 μM, replicate columns
  Normalised V0: 0.9661 and 1.259 and 1.028 and 1.106 and 0.9509 and 0.8874
BRISC; [Inhibitor] 0.02 μM, replicate columns
  Normalised V0: 0.8164 and 1.359 and 1.027
BRISC; [Inhibitor] 0.0399999 μM, replicate columns
  Normalised V0: 0.8327 and 1.212 and 1.032
BRISC; [Inhibitor] 0.0599997 μM, replicate columns
  Normalised V0: 1.019 and 1.179 and 1.007
BRISC; [Inhibitor] 0.0799994 μM, replicate columns
  Normalised V0: 0.9329 and 1.215 and 0.984
BRISC; [Inhibitor] 0.119998 μM, replicate columns
  Normalised V0: 0.8991 and 1.297 and 1.1131
BRISC; [Inhibitor] 0.199996 μM, replicate columns
  Normalised V0: 0.9109 and 1.1 and 0.9714
BRISC; [Inhibitor] 0.499975 μM, replicate columns
  Normalised V0: 0.8337 and 0.8541 and 0.839
BRISC; [Inhibitor] 0.799936 μM, replicate columns
  Normalised V0: 0.8201 and 0.7671 and 0.7222
BRISC; [Inhibitor] 1.25984 μM, replicate columns
  Normalised V0: 0.7744 and 0.5965 and 0.5179
BRISC; [Inhibitor] 1.9996 μM, replicate columns
  Normalised V0: 0.7381 and 0.4197 and 0.4126
BRISC; [Inhibitor] 3.159 μM, replicate columns
  Normalised V0: 0.4028 and 0.2971 and 0.3289
BRISC; [Inhibitor] 5.19739 μM, replicate columns
  Normalised V0: 0.6152 and 0.3188 and 0.3118
BRISC; [Inhibitor] 7.99364 μM, replicate columns
  Normalised V0: 0.4919 and 0.2336 and 0.2963
BRISC; [Inhibitor] 12.7839 μM, replicate columns
  Normalised V0: 0.5596 and 0.3112 and 0.2492
BRISC; [Inhibitor] 19.96 μM, replicate columns
  Normalised V0: 0.1876 and 0.174 and 0.161
BRISC; [Inhibitor] 31.4999 μM, replicate columns
  Normalised V0: 0.1887 and 0.2421 and 0.2131
BRISC; [Inhibitor] 50.147 μM, replicate columns
  Normalised V0: 0.05691 and 0.1395 and 0.2567
BRISC; [Inhibitor] 79.7601 μM, replicate columns
  Normalised V0: 0.2227 and 0.2164 and 0.1439
BRISC; [Inhibitor] 125.99 μM, replicate columns
  Normalised V0: 0.1622 and 0.2082 and 0.2077
BRISC; [Inhibitor] 199.922 μM, replicate columns
  Normalised V0: 0.03119 and 0.1486 and 0.1232
BRISC; human vs mouse and zebrafish BRISC
  potency ranking over BRISC orthologs: highest potency toward human BRISC over mouse and zebrafish BRISC
BRISC; inhibitor 0.000794328 μM
  Normalised velocity (V0): 1
BRISC; inhibitor 0.00125892 μM
  Normalised velocity (V0): 0.9709 and 1.087
BRISC; inhibitor 0.00199526 μM
  Normalised velocity (V0): 0.9893 and 1.074
BRISC; inhibitor 0.00316228 μM
  Normalised velocity (V0): 1.07 and 1.182
BRISC; inhibitor 0.00501187 μM
  Normalised velocity (V0): 1.042 and 1.106
BRISC; inhibitor 0.00794328 μM
  Normalised velocity (V0): 1.04 and 1.13
BRISC; inhibitor 0.0125893 μM
  Normalised velocity (V0): 0.9855 and 1.097
BRISC; inhibitor 0.0199526 μM
  Normalised velocity (V0): 1.04 and 1.062
BRISC; inhibitor 0.0316228 μM
  Normalised velocity (V0): 0.9173 and 1.065
BRISC; inhibitor 0.0501187 μM
  Normalised velocity (V0): 0.915 and 1.002
BRISC; inhibitor 0.0794328 μM
  Normalised velocity (V0): 0.8247 and 0.8903
BRISC; inhibitor 0.125893 μM
  Normalised velocity (V0): 0.6057 and 0.745
BRISC; inhibitor 0.199526 μM
  Normalised velocity (V0): 0.5727 and 0.6444
BRISC; inhibitor 0.316228 μM
  Normalised velocity (V0): 0.4326 and 0.4719
BRISC; inhibitor 0.398107 μM
  Normalised velocity (V0): 0.425 and 0.486
BRISC; inhibitor 0.630957 μM
  Normalised velocity (V0): 0.3369 and 0.3696
BRISC; inhibitor 1 μM
  Normalised velocity (V0): 0.2871 and 0.3028
BRISC; inhibitor 1.58489 μM
  Normalised velocity (V0): 0.2427 and 0.2962
BRISC; inhibitor 2.51189 μM
  Normalised velocity (V0): 0.2711 and 0.2368
BRISC; inhibitor 3.98107 μM
  Normalised velocity (V0): 0.2213 and 0.2236
BRISC; inhibitor 6.30957 μM
  Normalised velocity (V0): 0.121 and 0.1898
BRISC; inhibitor 10 μM
  Normalised velocity (V0): 0.08882 and 0.07343
BRISC; inhibitor 15.8489 μM
  Normalised velocity (V0): 0.08806 and 0.08498
BRISC; inhibitor 25.1189 μM
  Normalised velocity (V0): 0
BRISC; inhibitor 39.8107 μM
  Normalised velocity (V0): 0
BRISC; inhibitor 63.0957 μM
  Normalised velocity (V0): 0
BRISC; inhibitor 100 μM
  Normalised velocity (V0): 0

— publication PMC7617869, “Molecular glues that inhibit deubiquitylase activity and inflammatory signaling” (Nature Structural & Molecular Biology, 2025)
